3 compounds from patent US20130143739A1, “HERBICIDAL COMPOSITION CONTAINING 4-amino-3-chloro-6-(4-chloro-2-fluoro-3-methoxyphenyl) pyridine-2-carboxylic acid or derivative thereof AND FLUROXYPYR or derivatives thereof” (DOW AGROSCIENCES LLC, priority 2011, published 2013) can be followed below.

Several values for one entry are separate records, joined by “and”; a condition that tells them apart may be missing. Identical values can stand only once.

Holding throughout (assay type): in vivo
For assay [1], the system named is CHEAL (Chenopodium album). The experiment in a line: Postemergence field trial, weed control in cereal crops. The settings on record: 14 DAA. As for the experimental part:
(§1) Evaluation of Postemergence Herbicidal Activity of Mixtures in Cereal crops and Range and Pasture.
(§2) Field trials were conducted in cereal crops (winter wheat (TRZAW), spring wheat (TRZAS) and spring barley (HORVU) in Canada, France, Germany, Spain, Denmark, United Kingdom and Belgium, and pasture trials were conducted in Colombia using standard herbicide small plot research methodology. Plot size was typical for small plot research, varying from 1.4 to 2 meters (m) wide by 3 to 10 m long. There were 2-4 replicates per treatment. The soil type ranged from coarse, to medium or heavy in terms of soil texture. Cereal crops were planted, grown and maintained as commercial production fields. Perennial pastures were natural plant and weed infestations as per normal local cultural practices. The cereal and pasture crops were grown using normal cultural practices for fertilization and maintenance to ensure good growth of the crop/pastures and the weeds.
(§3) Treatments were applied by backpack or bicycle sprayers using either compressed air, nitrogen, or carbon dioxide (CO2), at spray pressures from 200 to 300 Kpa. Spray tips were typically Flat Fan Teejet nozzles, such as TJ8003. Spray volumes varied from 200 to 400 liters per hectare (L/ha). MEOPA plant size at application varied from 70 to 80 centimeters (cm) tall active growth at flowering stage. All cereal weeds tested varied from 2 leaf to 8 leaf and often branched or tittered.
(§4) For each treatment, the appropriate formulated product amount to treat the plot area, to achieve the desired application rate, based on unit area of application (hectare), was calculated, measured, and mixed in water prior to applying with the backpack or bicycle sprayer. Treatments were rated as compared to the untreated control plots. The commercial fluroxypyr formulations used were Starane® Ultra (333 gr ae/liter) or Starane® 2 (200 gr ae/liter). Compound I was formulated as a 20% weight acid equivalent wettable granule (WG) or as a 7.5 gr ae/liter EC of the corresponding methyl ester. All Compound (I) treatments were tank mixed with an adjuvant. Compound (I) treatments in the cereal trials contained the safener cloquintocet-mexyl.
(§5) Colby's equation was used to determine the herbicidal effects expected from the mixtures (Colby, S. R. Calculation of the synergistic and antagonistic response of herbicide combinations. Weeds 1967, 15, 20-22.).
(§6) The following equation was used to calculate the expected activity of mixtures containing two active ingredients, A and B:
(§7) A=observed efficacy of active ingredient A at the same concentration as used in the mixture.
(§8) B=observed efficacy of active ingredient B at the same concentration as used in the mixture.

The next assay has as its system VIOAR (Viola arvensis). Described as above. The settings on record: 14 DAA. On the procedure: as §1, §2, §3, §4, §5, §6, §7, §8
The next assay deals with STEME (Stellaria media). Described as above. On the procedure: as §1, §2, §3, §4, §5, §6, §7, §8
In assay [2] the test system is VEROF (Veronica officinalis). The description is as above. The settings on record: 28 DAA. On the procedure: as §1, §2, §3, §4, §5, §6, §7, §8
Another assay deals with PAPRH (Papaver rhoeas). Described as above. The settings on record: 28 DAA. On the procedure: as §1, §2, §3, §4, §5, §6, §7, §8
The test system of assay [3] is VERHE (Veronica hederifolia). The description is as above. The settings on record: 49 DAA. On the procedure: as §1, §2, §3, §4, §5, §6, §7, §8
In assay [4] the test system is MATCH (Matricaria chamomilla). The description is as above. On the procedure: as §1, §2, §3, §4, §5, §6, §7, §8
The next assay concerns STAAN (Stachys annua). The description is as above. The settings on record: 14 DAA. As for the experimental part: as §1, §2, §3, §4, §5, §6, §7, §8
The test system of a further assay is SINAR (Sinapis arvensis). Described as above. The settings on record: 58 DAA. As for the experimental part:
as §1, §2, §3, §4, §5, §6, §7, §8

In assay [5] the test system is AMARE (Amaranthus retroflexus). The assay is described as above. The settings on record: 56 DAA. On the procedure:
as §1, §2, §3, §4, §5, §6, §7, §8

In the next assay the test system is CIRAR (Cirsium arvense). The assay is described as above. The settings on record: 14 DAA. As for the experimental part: as §1, §2, §3, §4, §5, §6, §7, §8
For a further assay, the system named is LAMPU (Lamium purpureum). The assay is described as above. The settings on record: 28 DAA. On the procedure: as §1, §2, §3, §4, §5, §6, §7, §8
The test system of assay [6] is POLAV (Polygonum aviculare). The assay is described as above. The settings on record: 13-27 DAA. On the procedure: as §1, §2, §3, §4, §5, §6, §7, §8
Assay [7] has as its system CASOB (Cassia obtusifolia). The experiment in a line: Postemergence field trial, weed control in range and pasture. The settings on record: 29-42 DAA. On the procedure:
as §1, §2, §3, §4, §5, §6, §7, §8

Assay [8] deals with MEOPA (Melochia parviflora). Described as above. The settings on record: for Obs, observed percent weed control: 14 DAA, Table 1; for % Visual Injury, Obs: 63 DAA. On the procedure: as §1, §2, §3, §4, §5, §6, §7, §8
Where [9] appears, read: fluroxypyr MHE 150 g ae/ha alone.
[10] abbreviates: fluroxypyr MHE 140 g ae/ha alone.
Where [11] appears, read: fluroxypyr MHE 77 g ae/ha alone.
The mark [12] stands for this setting: fluroxypyr MHE 120 g ae/ha alone.

In the case of `CCCCCCC(C)OC(=O)COc1nc(F)c(Cl)c(N)c1Cl` (centres unmarked) [Fluroxypyr (MHE), Fluroxypyr Methylheptyl Ester, reference compound], the “% Visual Injury, Obs” value in assay [1] (setting [9]) was 10%; in the assay on VIOAR (Viola arvensis) (setting [10]), 50%; with STEME (Stellaria media) (28 DAA, fluroxypyr MHE 200 g ae/ha alone), 27%; with STEME (Stellaria media) (30 DAA, fluroxypyr MHE 80 g ae/ha alone), 81%; in the assay with STEME (Stellaria media) (76 DAA, fluroxypyr MHE 110 g ae/ha alone, Table 5), 67%; in the assay on STEME (Stellaria media) (76 DAA, fluroxypyr MHE 140 g ae/ha alone, Table 3) it was 77%. Moreover, the “% Visual Injury, Obs” value in assay [2] (setting [10]) is 0%; in the assay with PAPRH (Papaver rhoeas) (setting [10]), 5%; in assay [3] (fluroxypyr MHE 110 g ae/ha alone), 42%; in assay [4] (27 DAA, fluroxypyr MHE 200 g ae/ha alone), 47%; in [4] (54 DAA, fluroxypyr MHE 150 g ae/ha alone) it was 0%; with STAAN (Stachys annua) (setting [9]), 30%. The “% Visual Injury, Obs” value is 13% in the assay on SINAR (Sinapis arvensis) (setting [10]); 20% in [5] (setting [11]); 10% in the assay with CIRAR (Cirsium arvense) (setting [9]); 4% with LAMPU (Lamium purpureum) (fluroxypyr MHE 50 g ae/ha alone); 25% in assay [6] (setting [11]); 61% in assay [6] (fluroxypyr MHE 80 g ae/ha alone). Moreover, the “% Visual Injury, Obs” value was 18% in assay [7] (setting [12]); 3% and 8% in assay [8] (setting [12]). The “Obs, observed percent weed control” value in [8] (setting [12]) is given as 3.5%.
Turning to `COC(=O)c1nc(-c2ccc(Cl)c(OC)c2F)cc(N)c1Cl` [XDE-729 (Methyl Ester), halauxifen-methyl], the “% Visual Injury, Obs” value in the assay with VIOAR (Viola arvensis) (XDE-729 Me 6 g ae/ha alone) turned out to be 10%; in the assay on STEME (Stellaria media) (30 DAA, XDE-729 Me 2 g ae/ha alone) it was 58%; in the assay with STEME (Stellaria media) (76 DAA, XDE-729 Me 4.5 g ae/ha alone, Table 3), 19%; in the assay on STEME (Stellaria media) (76 DAA, XDE-729 Me 4.5 g ae/ha alone, Table 5) it was 22%; in the assay on STEME (Stellaria media) (76 DAA, XDE-729 Me 6 g ae/ha alone, Table 3) it was 29%; in the assay with STEME (Stellaria media) (76 DAA, XDE-729 Me 6 g ae/ha alone, Table 5), 38%. The “% Visual Injury, Obs” value in assay [2] (XDE-729 Me 6 g ae/ha alone) is recorded as 0%; with PAPRH (Papaver rhoeas) (XDE-729 Me 6 g ae/ha alone), 54%; in assay [3] (XDE-729 Me 6 g ae/ha alone), 23%; in assay [4] (54 DAA, XDE-729 Me 6 g ae/ha alone), 0%; in the assay on SINAR (Sinapis arvensis) (XDE-729 Me 6 g ae/ha alone), 0%; in assay [5] (XDE-729 Me 5 g ae/ha alone) it was 50%. The “% Visual Injury, Obs” value with LAMPU (Lamium purpureum) (XDE-729 Me 2 g ae/ha alone) amounted to 73%; in [6] (XDE-729 Me 2 g ae/ha alone), 0%; in assay [6] (XDE-729 Me 5 g ae/ha alone), 53%; in assay [7] (XDE-729 Me 18 g ae/ha alone) it was 6%; in assay [7] (XDE-729 Me 35 g ae/ha alone), 16%; in assay [8] (XDE-729 Me 18 g ae/ha alone) it was 25%. For the same compound, the “% Visual Injury, Obs” value in [8] (XDE-729 Me 35 g ae/ha alone) came out at 42%. Moreover, the “Obs, observed percent weed control” value in assay [8] (XDE-729 methyl ester 17.5 g ae/ha alone) turned out to be 48.5%; in assay [8] (XDE-729 methyl ester 35 g ae/ha alone), 63.1%.
For `COc1c(Cl)ccc(-c2cc(N)c(Cl)c(C(=O)O)n2)c1F` [XDE-729 (TEA)], the “% Visual Injury, Obs” value in assay [1] (XDE-729 TEA 8.8 g ae/ha alone) amounted to 83%; in the assay with STEME (Stellaria media) (28 DAA, XDE-729 TEA 35 g ae/ha alone), 10%; in [4] (27 DAA, XDE-729 TEA 35 g ae/ha alone), 8%; in the assay on STAAN (Stachys annua) (XDE-729 TEA 8.8 g ae/ha alone), 64%; in the assay on CIRAR (Cirsium arvense) (XDE-729 TEA 8.8 g ae/ha alone), 64%.
